Reference: ChEMBL document CHEMBL4229402, “Kava analogues as agents for treatment of periodontal diseases: Synthesis and initial biological evaluation” (Bioorg Med Chem Lett, 2018)
Calls of active or inactive are those of the source. The calls are words filed in the database; no cut-off is given here.

Tests used:
[1] = tested on: BMDM; assay: Antiperiodontic activity in mouse bone marrow macrophages assessed as reduction in Porphyromonas gingivalis-induced TNFalpha levels at 100 ug/ml after 4 hrs by ELISA; assay type: functional
[2] = tested on: BMDM; assay: Antiperiodontic activity in mouse bone marrow macrophages assessed as reduction in Porphyromonas gingivalis-induced TNFalpha levels at 20 to 100 ug/ml after 4 hrs by ELISA; assay type: functional

With COC1=CC(=O)O[C@@H](/C=C/c2ccccc2)C1 the Activity [1] was “Active”.
CCOC(=O)C1C(=O)C=C(OC(=O)c2ccccc2)CC1(C)C (configuration not stated) was tested, and the Activity [2] was “Active”.
